Laboratory results from ChEMBL document CHEMBL1126475, “Synthesis of a potent and selective non-peptide CCK-B/gastrin receptor antagonist tritiated ligand” (Bioorg Med Chem Lett, 1993).

Experiments:
[1] = target: T1, Gastrin/cholecystokinin type B receptor (Rattus norvegicus) (UniProt P30553); experiment: Specific activity for Cholecystokinin type B receptor in 10e5 AR42J cells was determined for the compound.; format: cell-based; details: AR-42J
T1 sequence (whole entry): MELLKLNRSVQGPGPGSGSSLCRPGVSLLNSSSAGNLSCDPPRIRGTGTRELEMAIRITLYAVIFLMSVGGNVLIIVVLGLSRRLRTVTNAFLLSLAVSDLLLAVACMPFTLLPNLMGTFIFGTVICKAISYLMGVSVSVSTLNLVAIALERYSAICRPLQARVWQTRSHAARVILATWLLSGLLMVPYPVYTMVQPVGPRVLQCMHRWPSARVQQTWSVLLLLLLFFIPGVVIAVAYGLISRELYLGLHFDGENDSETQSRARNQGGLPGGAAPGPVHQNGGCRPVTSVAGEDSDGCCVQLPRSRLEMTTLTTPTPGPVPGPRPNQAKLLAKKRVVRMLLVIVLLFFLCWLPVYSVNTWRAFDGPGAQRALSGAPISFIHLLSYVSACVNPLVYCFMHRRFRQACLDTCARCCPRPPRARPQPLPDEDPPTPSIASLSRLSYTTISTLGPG

[2] = target: T2, Cholecystokinin receptor type A (Rattus norvegicus, UniProt P30551); experiment: The compound was evaluated for the inhibition of binding of [125I]Bolton-Hunter CCK-8 to Cholecystokinin type A receptor in the rat pancreas.
T2 sequence (P30551 whole entry): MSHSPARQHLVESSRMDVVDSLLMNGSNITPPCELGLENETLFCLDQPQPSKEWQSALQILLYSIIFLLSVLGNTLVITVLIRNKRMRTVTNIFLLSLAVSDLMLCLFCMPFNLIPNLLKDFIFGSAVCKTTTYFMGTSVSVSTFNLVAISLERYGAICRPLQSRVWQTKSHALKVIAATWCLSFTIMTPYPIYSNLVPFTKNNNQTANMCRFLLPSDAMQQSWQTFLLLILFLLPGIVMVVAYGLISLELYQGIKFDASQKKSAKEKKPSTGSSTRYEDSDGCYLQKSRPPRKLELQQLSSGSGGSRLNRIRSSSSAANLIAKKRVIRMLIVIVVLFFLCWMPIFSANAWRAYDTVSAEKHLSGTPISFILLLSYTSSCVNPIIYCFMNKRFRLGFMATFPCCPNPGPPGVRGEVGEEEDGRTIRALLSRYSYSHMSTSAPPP

[3] = Tested for dissociation constant of the compound; Value ranges from 0.1-0.3; format: ADME
[4] = target: T3, Gastrin/cholecystokinin type B receptor (Mus musculus, UniProt P56481); experiment: The compound was evaluated for the inhibition of binding of [3H]-PD 140376 to Cholecystokinin type B receptor in mouse cortex.
T3 sequence (P56481 whole entry): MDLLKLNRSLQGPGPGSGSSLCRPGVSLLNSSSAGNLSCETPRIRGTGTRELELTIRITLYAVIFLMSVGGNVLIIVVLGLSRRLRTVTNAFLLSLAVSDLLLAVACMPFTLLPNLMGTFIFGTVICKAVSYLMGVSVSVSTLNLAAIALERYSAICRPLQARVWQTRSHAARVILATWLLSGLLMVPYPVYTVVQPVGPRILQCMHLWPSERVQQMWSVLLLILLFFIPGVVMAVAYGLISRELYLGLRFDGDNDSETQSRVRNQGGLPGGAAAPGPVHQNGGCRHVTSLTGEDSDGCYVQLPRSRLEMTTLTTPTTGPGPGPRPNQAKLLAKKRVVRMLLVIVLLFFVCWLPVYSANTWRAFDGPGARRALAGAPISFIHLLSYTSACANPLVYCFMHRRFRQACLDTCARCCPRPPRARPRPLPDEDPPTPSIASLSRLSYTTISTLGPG

[5] = species: Rattus norvegicus; experiment: Antagonistic activity against excitations of rat ventromedial hyphalamic neurones evoked in CCK-B; format: functional

| Bmax (fmol/10^5 cells) [1] | Ki [2] [nM] | Kd [3] [nM] | Ki [4] [nM] | Structure (SMILES) | Ke [5] [nM] |
| --- | --- | --- | --- | --- | --- |
| 31 | 350 | 0.1 | 0.2 | C[C@](Cc1c[nH]c2ccccc12)(NC(=O)OC1C2CC3CC(C2)CC1C3)C(=O)N[C@@H](CC(=O)O)Cc1ccc(N)cc1 (stereo not given in full) |  |
|  |  |  |  | CSCC[C@H](NC(=O)[C@H](Cc1c[nH]c2ccccc12)NC(=O)CCNC(=O)OC(C)(C)C)C(=O)N[C@@H](CC(=O)O)C(=O)N[C@@H](Cc1ccccc1)C(N)=O [PENTAGASTRIN] | 1.4 |
